Test results taken from US20120100555A1, “Synthesis And Use Of Fluorophore-Tagged Antimalarials” (priority 2009, published 2012).

Columns and labels:
[1] = system: P. falciparum strains 3D7 (CQ-susceptible); test: Inhibitory concentration (IC50) determination, Hoechst staining and flow cytometry; type: cell-based, Plasmodium falciparum
Procedure: Parasitized cultures were incubated for 48 hours with various concentrations of the test compounds and, thereafter, parasitemia was determined using Hoechst staining and flow cytometric analyses.
(§1) Plasmodium falciparum culture. […] Parasite cultures were maintained in 75 cm^2 or 125 cm^2 flasks using malaria culture media (MCM) consisting of RPMI 1640 supplemented with 0.5% (w/v) albumax I (Invitrogen), 0.005% (w/v) hypoxanthine, 0.03% (w/v) L-glutamate, 0.25% (w/v) gentamycin and 2.5% human erythrocytes. Flasks were gassed with 3% CO2, 4% O2 and 93% N2 and incubated at 37° C. in a dark incubator. Culture medium was replenished during subculturing on alternate days. Thin Giemsa smears were made to determine parasitemia before subculture and at the start of each experiment. Sorbitol synchronization (See Lambros, C., and Vanderberg, J. P. (1979) J Parasitol 65, 418-420) was carried out weekly to select for ring-stage parasites. Saponin enrichment (See Beaumelle, B. D., et al., (1987) J. Parasitol 73, 743-748) was carried out prior to staining with CaspaTag to liberate the parasites from host erythrocytes. Cultures of approximately 10% parasitemia were used, with parasites being in the late-ring stage (22-26 hours post-invasion) during the administration of inhibitor and drugs unless otherwise stated.
Inhibitory concentration (IC50) determination. […] To determine parasitemia, cultures were stained with Hoechst 33342, as described above, and analyzed by flow cytometry.
(§2) Flow Cytometric Analyses. Cell numbers and fluorescence intensity after staining with JC-1 were assayed by a flow cytometer (DAKO Cytomation Cyan ADP), equipped with an argon-ion laser tuned to 488 nm and a violet laser tuned to 405 nm. Green and red fluorescence was detected using 525 and 595 nm band-pass filters respectively. The flow cytometer was adjusted for forward and side scattering to accommodate infected erythrocytes. Between 10,000 to 20,000 infected erythrocytes or enriched parasites were analyzed from each sample and its respective duplicate to ensure reliability. At least three independent experiments were performed unless otherwise stated.

P. falciparum, 3D7 [2] = test: Mitochondria trans-membrane potential assay (JC-1); type: cell-based, Plasmodium falciparum
Procedure: as §1, with “Cultures of approximately 10% parasitemia were used, with parasites being in the late-ring stage (22-26 hours post-invasion) during the administration of inhibitor and drugs unless otherwise stated.” left out
as §2, with “The flow cytometer was adjusted for forward and side scattering to accommodate infected erythrocytes.” left out, “At least three independent experiments were performed unless otherwise stated.” left out

[3] = system: Plasmodium falciparum parasites; test: CM-CQ accumulation with chemo-sensitizers, flow cytometry; type: cell-based; conditions: for effect of pre-treatment on CM-CQ accumulation in K1: K1 (CQ-resistant), 10 uM chemo-sensitizer 30 min, then 6 uM CM-CQ 10 hrs
Procedure: FIG. 8 is a graph showing the effects of chemo-sensitizers on coumarin-conjugated chloroquine (CM-CQ) accumulation in Plasmodium falciparum parasites. Data were obtained by flow cytometry.
(§3) Subsequently, 6 uM of Coumarin-Chloroquine (CM-CQ) was added to the samples for 10 hrs and left to incubate in the dark at 37° C. To ascertain the exact parasitemia of each condition, cultures in duplicate wells were stained with Hoechst just before flow cytometric analysis and fluorescence plate measurements. The proportion of CM-CQ-stained parasites was the ratio of the proportion of CM-CQ-stained infected erythrocyte culture over the proportion of Hoechst-positive erythrocytes.

[4] = system: Plasmodium falciparum parasites; test: CM-CQ accumulation with chemo-sensitizers, fluorescent plate reader; type: cell-based; conditions: for effect of pre-treatment on CM-CQ accumulation in K1: K1 (CQ-resistant), 10 uM chemo-sensitizer 30 min, then 6 uM CM-CQ 10 hrs
Procedure: FIG. 9 is a graph showing the effects of chemo-sensitizers on coumarin-conjugated chloroquine (CM-CQ) accumulation in Plasmodium falciparum parasites, obtained by spectrofluorometer plate readings.
as §3

P. falciparum, 3D7 [5] = conditions: low nanomolar concentrations of CQ, 8 hours
Procedure: as §1

[6] = 3D7, 48 hours, at the tested concentrations

Structure (SMILES): CN(C)c1ccc2c(CC(=O)O)cc(=O)oc2c1 [CM, 7-dimethyl amino-4-coumarinacetic acid]
- cytotoxicity [1, 6]: not cytotoxic
- inhibitory effect on parasitemia [1, 6]: no detectable inhibitory effect

Structure (SMILES): CCN(CCCCNc1ccnc2cc(Cl)ccc12)CC(=O)NCCNC(=O)Cc1cc(=O)oc2cc(N(C)C)ccc12 [CM-CQ]
- activity compared to chloroquine (FIG. 2) ([1]; 3D7): activity comparable to chloroquine
- IC50 ([1]; Plasmodium falciparum, read-out: IC50 (50% inhibitory concentration), 3D7, ring stage, 48 hours, parasitemia by Hoechst 33342 flow cytometry): 349 nM
- proportion of parasites containing functional mitochondrion with transmembrane potential (ΔΨm) after treatment (P. falciparum, 3D7 [2]; JC-1 J-aggregates, dose-dependent decline from about 90% in uninduced cells): ~60%
- CM-CQ accumulation, 3D7 compared to 7G8 and K1 ([3]; 6 uM CM-CQ 10 hrs, p<0.05): different levels
- CM-CQ accumulation, 3D7 compared to 7G8 and K1 ([4]; 6 uM CM-CQ 10 hrs, p<0.001): different levels

Structure (SMILES): CN(C)CCC(c1ccc(Cl)cc1)c1ccccn1 (centres unmarked) [CPR, chlorpheneramine]
- effect of pre-treatment on CM-CQ accumulation in K1 [3]: increase was also detected
- effect of pre-treatment on CM-CQ accumulation in K1 [4]: significantly increased

Structure (SMILES): CN(C)CCCN1c2ccccc2Sc2ccc(Cl)cc21 [CPZ, chlorpromazine]
- effect of pre-treatment on CM-CQ accumulation in K1 [3]: significantly increased
- effect of pre-treatment on CM-CQ accumulation in K1 [4]: significantly increased

Structure (SMILES): CCN(CC)CCCC(C)Nc1ccnc2cc(Cl)ccc12 (centres unmarked) [CQ, Chloroquine diphosphate]
- PCD features (JC-1) (P. falciparum, 3D7 [2]; low nanomolar concentrations of CQ, 8 hours): basal levels
- PCD features (CaspaTag) (P. falciparum, 3D7 [5]): basal levels

Structure (SMILES): CNCCCN1c2ccccc2CCc2ccccc21 [DSP, desipramine]
- effect of pre-treatment on CM-CQ accumulation in K1 [3]: significantly increased
- effect of pre-treatment on CM-CQ accumulation in K1 [4]: significantly increased

Structure (SMILES): COc1ccc([C@@H]2Sc3ccccc3N(CCN(C)C)C(=O)[C@@H]2OC(C)=O)cc1 [DTZ, diltiazem]
- effect of pre-treatment on CM-CQ accumulation in K1 [3]: not
- effect of pre-treatment on CM-CQ accumulation in K1 [4]: not

Structure (SMILES): CC(CN1c2ccccc2Sc2ccccc21)N(C)C (centres unmarked) [PMZ, promethazine]
- effect of pre-treatment on CM-CQ accumulation in K1 [3]: significantly increased
- effect of pre-treatment on CM-CQ accumulation in K1 [4]: increase was also detected

Structure (SMILES): CC(C)NCC(O)COc1cccc2ccccc12 (centres unmarked) [PPL, propranolol]
- effect of pre-treatment on CM-CQ accumulation in K1 [3]: not
- effect of pre-treatment on CM-CQ accumulation in K1 [4]: not

Structure (SMILES): COc1ccc(CCN(C)CCCC(C#N)(c2ccc(OC)c(OC)c2)C(C)C)cc1OC (centres unmarked) [VPM, verapamil]
- effect of pre-treatment on CM-CQ accumulation in K1 [3]: significantly increased
- effect of pre-treatment on CM-CQ accumulation in K1 [4]: significantly increased
